Test results as given in the CheMixHub viscosity set.

Assay: xn = mol fraction of the nth substance listed

CCC(=O)OC + C1CCCCC1
viscosity [mPa·s], 101 kPa
Details | 298.15 K | 308.15 K
x1 = 0.0565 | 0.827 | 0.699
x1 = 0.1524 | 0.742 | 0.621
x1 = 0.2574 | 0.67 | 0.556
x1 = 0.3378 | 0.626 | 0.517
x1 = 0.4555 | 0.578 | 0.475
x1 = 0.4981 | 0.565 | 0.463
x1 = 0.5542 | 0.55 | 0.45
x1 = 0.6536 | 0.532 | 0.434
x1 = 0.7514 | 0.522 | 0.426
x1 = 0.8265 | 0.519 | 0.424
x1 = 0.9564 | 0.526 | 0.432

CCCCn1cc[n+](C)c1.[Cl-] + CC#N
Details | viscosity [mPa·s]
308.15 K, 101 kPa, x2 = 0.7003 | 8.47

CCCOCCO + CC(=O)N(C)C
298.15 K, 101 kPa
Details | viscosity [mPa·s]
x1 = 0.0049 | 0.951
x1 = 0.0086 | 0.956
x1 = 0.0134 | 0.961
x1 = 0.0272 | 0.982
x1 = 0.0419 | 1.01
x1 = 0.0739 | 1.049
x1 = 0.1253 | 1.125
x1 = 0.178 | 1.202
x1 = 0.2555 | 1.322
x1 = 0.3191 | 1.426
x1 = 0.3487 | 1.478
x1 = 0.3842 | 1.536
x1 = 0.4022 | 1.578
x1 = 0.4678 | 1.679
x1 = 0.5258 | 1.786
x1 = 0.5917 | 1.897
x1 = 0.6504 | 1.987
x1 = 0.725 | 2.094
x1 = 0.8523 | 2.26
x1 = 0.9508 | 2.339
x1 = 0.979 | 2.345

N#Cc1ccccc1 + CC(C)(C)O
viscosity [mPa·s], 101.33 kPa
Details | x1 = 0.0567 | x1 = 0.1542 | x1 = 0.2837 | x1 = 0.3997 | x1 = 0.4923 | x1 = 0.5993 | x1 = 0.7289 | x1 = 0.8283 | x1 = 0.8923
303.15 K | 2.895 | 2.017 | 1.578 | 1.365 | 1.262 | 1.203 | 1.142 | 1.121 | 1.114
308.15 K | 2.311 | 1.696 | 1.368 | 1.223 | 1.137 | 1.094 | 1.043 | 1.034 | 1.028
313.15 K | 1.811 | 1.429 | 1.187 | 1.072 | 1.021 | 1.001 | 0.98 | 0.962 | 0.951

CCCOCCO + CC(C)O
298.15 K, 101.33 kPa
Details | viscosity [mPa·s]
x1 = 0.0175 | 2.056
x1 = 0.0326 | 2.039
x1 = 0.0724 | 2.009
x1 = 0.0909 | 1.994
x1 = 0.1266 | 1.98
x1 = 0.1696 | 1.971
x1 = 0.2052 | 1.967
x1 = 0.249 | 1.967
x1 = 0.295 | 1.97
x1 = 0.3499 | 1.977
x1 = 0.398 | 1.993
x1 = 0.4072 | 1.997
x1 = 0.4661 | 2.019
x1 = 0.5167 | 2.041
x1 = 0.556 | 2.061
x1 = 0.6058 | 2.084
x1 = 0.6612 | 2.119
x1 = 0.7297 | 2.159
x1 = 0.7751 | 2.192
x1 = 0.8315 | 2.23
x1 = 0.8979 | 2.275
x1 = 0.9565 | 2.318

CCC(=O)OC + CCCCCCC
viscosity [mPa·s], 101.3 kPa
Details | 308.15 K | 318.15 K
x1 = 0.0447 | 0.354 | 0.322
x1 = 0.1083 | 0.355 | 0.326
x1 = 0.1932 | 0.358 | 0.332
x1 = 0.3018 | 0.362 | 0.34
x1 = 0.4146 | 0.369 | 0.349
x1 = 0.5227 | 0.377 | 0.359
x1 = 0.5693 | 0.381 | 0.363
x1 = 0.7002 | 0.395 | 0.377
x1 = 0.7986 | 0.407 | 0.389
x1 = 0.9016 | 0.421 | 0.402
x1 = 0.9509 | 0.429 | 0.409

CC(C)C(C)C + CCCCCCCCCCCC
298 K, 101.33 kPa
Details | viscosity [mPa·s]
x1 = 0.101 | 1.237
x1 = 0.2039 | 1.127
x1 = 0.297 | 1.018
x1 = 0.4013 | 0.898
x1 = 0.4985 | 0.7936
x1 = 0.6035 | 0.6871
x1 = 0.7426 | 0.5433
x1 = 0.8116 | 0.4795
x1 = 0.9014 | 0.4023

CC(C)C(C)C + CCCCCCCCCCCCCC
298 K, 101.33 kPa
Details | viscosity [mPa·s]
x1 = 0.1 | 1.884
x1 = 0.2006 | 1.669
x1 = 0.3044 | 1.451
x1 = 0.4033 | 1.246
x1 = 0.503 | 1.051
x1 = 0.6031 | 0.8719
x1 = 0.701 | 0.7123
x1 = 0.8016 | 0.5711
x1 = 0.9008 | 0.4356

CC(C)C(C)C + CCCCCCCCCCCCCCCC
298 K, 101.33 kPa
Details | viscosity [mPa·s]
x1 = 0.0846 | 2.773
x1 = 0.2077 | 2.325
x1 = 0.2966 | 2.045
x1 = 0.3988 | 1.74
x1 = 0.4973 | 1.432
x1 = 0.6023 | 1.135
x1 = 0.7034 | 0.8764
x1 = 0.8019 | 0.6623
x1 = 0.9002 | 0.4751

CCCOCCO + CCCCCO
298.15 K, 101.33 kPa
Details | viscosity [mPa·s]
x1 = 0.0215 | 3.463
x1 = 0.0339 | 3.418
x1 = 0.0569 | 3.355
x1 = 0.0878 | 3.254
x1 = 0.1148 | 3.179
x1 = 0.1461 | 3.103
x1 = 0.1776 | 3.025
x1 = 0.2194 | 2.928
x1 = 0.2669 | 2.847
x1 = 0.327 | 2.776
x1 = 0.3773 | 2.72
x1 = 0.4289 | 2.667
x1 = 0.4842 | 2.61
x1 = 0.4911 | 2.608
x1 = 0.5387 | 2.574
x1 = 0.5721 | 2.548
x1 = 0.61 | 2.524
x1 = 0.6569 | 2.493
x1 = 0.7066 | 2.458
x1 = 0.7368 | 2.441
x1 = 0.7698 | 2.426
x1 = 0.8114 | 2.404
x1 = 0.8483 | 2.389
x1 = 0.8888 | 2.374
x1 = 0.9244 | 2.363
x1 = 0.963 | 2.353
x2 = 0.0102 | 2.35

N#Cc1ccccc1 + CCCCCO
viscosity [mPa·s], 101.33 kPa
Details | x1 = 0.1034 | x1 = 0.1623 | x1 = 0.3038 | x1 = 0.387 | x1 = 0.5033 | x1 = 0.6086 | x1 = 0.7205 | x1 = 0.82 | x1 = 0.9162
303.15 K | 2.395 | 2.152 | 1.737 | 1.558 | 1.374 | 1.262 | 1.182 | 1.153 | 1.14
308.15 K | 2.116 | 1.925 | 1.565 | 1.406 | 1.244 | 1.162 | 1.097 | 1.079 | 1.064
313.15 K | 1.895 | 1.723 | 1.412 | 1.283 | 1.14 | 1.07 | 1.017 | 1.01 | 0.993

CC(=O)CCc1ccccc1 + CCCCCOC(C)=O
298.15 K, 101 kPa
Details | viscosity [mPa·s]
x1 = 0.0322 | 0.8102
x1 = 0.0702 | 0.8323

CCCCC[N+](CC)(CC)CC.O=S(=O)([N-]S(=O)(=O)C(F)(F)F)C(F)(F)F + CCCCC[P+](CC)(CC)CC.O=S(=O)([N-]S(=O)(=O)C(F)(F)F)C(F)(F)F
viscosity [mPa·s], 101.3 kPa
Details | 298.15 K | 303.15 K | 308.15 K | 313.15 K | 318.15 K
x1 = 0.2 | 96.6 | 75.4 | 59.8 | – | –
x1 = 0.4 | – | 83.6 | 65.8 | 52.7 | –
x1 = 0.6 | – | 94.3 | 73.6 | 58.4 | –
x1 = 0.8 | – | – | 83.8 | – | 52.8
